Test results published in patent US20260256860A1, “TRADITIONAL CHINESE MEDICINE COMPOSITION FOR TREATING AMYOTROPHIC LATERAL SCLEROSIS AND USE THEREOF” (HEBEI YILING MEDICAL RESEARCH INSTITUTE CO., LTD, priority 2023, published 2026).
“And” between values parts separate entries of the source, which are not always exact repeats. Equal values may be shown once.

What was measured:
Assay type in all cases: in vivo
[1] = system: SOD1-G93A transgenic mice; experiment: Immunofluorescence of gastrocnemius muscle and spinal cord, SOD1-G93A transgenic mice; conditions: vs model control; Riluzole 0.02 g/kg; TCM-073 each administration group (1.5, 3.0, 6.0 g raw drug/kg); 30 days
Experimental: (§1) After ALS model mice were determined to have significant changes compared to negative control mice in behavioral test by combining literature as well as prior experience, they were randomly grouped according to their body weight. The drug administration was started and mice were observed.
(§2) The corresponding drug solution was administered via gavage using a syringe at a volume of 10 ml/kg. The model group and negative control group were administered with an equivalent volume of sterile injectable water. The administration dose for each animal was adjusted weekly according to the animal's latest weighed weight.
(§3) After 30 days of administration, electrophysiological measurements were performed, and tissue material was collected for subsequent detections. • 2.7.1 Electrophysiological parameters
Based on the amount of spinal cord and muscle tissues harvested from mice, neuromuscular junction, stem cell regeneration, microglial senescence and degree of myelin and neuronal damage and repair were detected. For example, the muscular presynaptic marker (synaptotagmin-2) and the acetylcholine receptor (AChR) marker (α-BTX) were co-stained, the satellite cell marker (Pax7) and laminin 2a were co-stained, the myelin marker (myelin basic protein, MBP) was stained, and the neuronal marker (beta-III Tubulin, also known as Tuj-1) was stained. • 2.7.5 Molecular biological indicators
The muscular presynaptic marker (synaptotagmin-2) and acetylcholine receptor (AChR) marker (α-BTX) of the gastrocnemius muscle were detected by the immunofluorescence.
The satellite cell marker (Pax7) and laminin 2α of the gastrocnemius muscle were detected by the immunofluorescence.
The myelin marker (myelin basic protein, MBP) of the spinal cord was detected by the immunofluorescence.
The neuronal marker (beta-III Tubulin, also known as Tuj-1) of the spinal cord was detected by the immunofluorescence.

[2] = system: SOD1-G93A transgenic mice; experiment: HE staining of sciatic nerve, lesion grading, SOD1-G93A transgenic mice; set-up: key to Axonal degeneration with myelin degeneration, lesion grade of individual animal: mild (+); moderate (++); moderately severe (+++); severe (++++); conditions: for Lesion score (divided by gender): median of lesion grade points; for Axonal degeneration with myelin degeneration, lesion grade of individual animal: sciatic nerve HE, individual animals, listed as Positive drug control group
Experimental: as §1, §2, §3
HE staining was carried out to observe gastrocnemius muscle and sciatic nerve. Toluidine blue staining was carried out to observe the morphology and number of motor neurons in the spinal cord. • 2.7.4 Immunofluorescence

[3] = system: SOD1-G93A transgenic mice; experiment: Compound muscle action potential electrophysiology in SOD1-G93A transgenic mice; conditions: Riluzole 0.02 g/kg gavage, 30 days
Experimental: • 1.3.1 Animal Strain: B6SJL-Tg (SOD1-G93A) 1 Gur/J (Stock Number: 002726) provided by The Jackson Laboratory (United States). […] Both males and females were included. • 1.3.4 Animal Age: 7-8 weeks old. • 1.3.5 Animal Weight: At the start of dosing the body weight of male mice was 23.9-31.3 g, and the body weight of female mice was 17.7-25.4 g. • 1.3.6 Animal Source: Purchased from The Jackson Laboratory (United States). Breeding was conducted by Jiangsu GemPhanmatech Co., Ltd. • 1.3.7 Animal Certification of Quality, issuing authority, and receipt date: Certification number 320727210100609023. License number SCXK (Jiangsu) 2018-0008. Issuing authority: Jiangsu GemPharmatech Co., Ltd. Receipt date: Oct. 13, 2021. • 1.3.8 Feeding Conditions: Mice were reared in cages at the Innovative Drug Evaluation Center of Hebei Research Institute of Integrated Traditional Chinese and Western Medicine. License Number: SYXK (Hebei) 2020-006. Lighting: 12 h/day. Temperature: 20-26° C. Relative Humidity: 40%-70%. • 1.3.9 Quarantine Process: Animals were subjected to adaptive feeding for at least 5 days. […] Experimental Animal Production License Number: SCXK (Beijing) 2019-0003. Product Batch Number: 21073213. Expiration date: 2022 Jan. 3. • 1.3.11 Water: Clean water prepared by the ROB-B drinking water system for laboratory animal was provided, and filled in water bottles for free drinking. The drinking water was detected annually for all indicators, including mainly microbiological indicators, toxicological indicators, sensory characteristics, and general chemical parameters, and the detection was commissioned to a qualified institution. Microbial limit detection was performed every 2 months, which was commissioned to the Quality Control Department of Shijiazhuang Yiling Pharmaceutical Co., Ltd. The detection reports were stored by the animal department and archived annually. • 1.3.12 Bedding: Corn cob bedding (common grade) provided by Beijing Keao Xieli Feed Co., Ltd., was sterilized by high temperature and high pressure before use. Experimental Animal Production License Number: SCXK (Beijing) 2020-0010. Batch Number: 21099811. • 1.3.13 Marking: Mice were marked with ear tags, provided by Globalebio (Beijing) Technology Co., Ltd.
as §1
The drug was orally administered via gavage, consistent with the clinically recommended oral administration.
The administration dose for mice was 10 times the clinical dose, approximately 0.02 g/kg. The used administration volume was 10 ml/kg and administration concentration was 0.02 g/10 ml. […] During the preparation, one tablet was taken, ground with sterile injectable water and adjusted to a final volume of 25 ml. The obtained liquor can be used based on the number of animals.
The proposed clinical dose of TCM-073 was 18 g of raw drug/day. This test set three doses: low dose (1.5 g raw drug/kg), medium dose (3.0 g raw drug/kg), and high dose (6.0 g raw drug/kg), corresponding to 5, 10, and 20 times the clinical dose, respectively (See Table 14 for details). An appropriate amount of the drug was weighed and ground using sterile injectable water as the solvent to prepare high, medium, and low doses.
as §2
Based on preliminary experimental experience, literature review, and the disease characteristics of this mouse strain, the administration was started when the mice were 70 days old. […]

[4] = system: SOD1-G93A transgenic mice; experiment: Hanging test in SOD1-G93A transgenic mice; conditions: Riluzole 0.02 g/kg gavage, 90 second cut-off
Experimental: as §1, §2
• 2.6.1 The tail suspension test was carried out to observe straightening reflex of limbs. […] The scoring criteria are as follows: • 0 points—No flexion of the hindlimbs observed. • 1 point—Flexion observed in unilateral hindlimb, with no obvious flexion in the other. • 2 points—Flexion observed in bilateral hindlimbs. Mice with a score of 2 points were considered to be in the symptomatic phase. The tail suspension test was stopped when all ALS mice reached a score of 2 points. • 2.6.2 Hanging Test: The mouse was placed on a 3-mesh screen. The screen was then rapidly inverted, causing the mouse to hang upside down, and the timer was started. A 90 second cut-off time was set. The mice with a hanging time of less than 90 seconds were noted, and the actual time they remained hanged was recorded. The hanging test was discontinued upon the occurrence of death in ALS mice. […] The severity of this abnormality correlates with the degree of muscle atrophy and loss of muscle strength. In this study, the onset of disease in transgenic mice was determined based on the results of the tail suspension test. Additionally, guided by literature review and previous experimental experience, each mouse was sequentially evaluated by both the tail suspension and hanging tests.

[5] = system: SOD1-G93A transgenic mice; experiment: Neurological function score (Snow scoring) in SOD1-G93A transgenic mice; conditions: Riluzole 0.02 g/kg gavage
Experimental: as §1, §2
Neurological function was evaluated during the dosing phase using the Snow scoring method twice weekly. The specific criteria for neurological system scoring are as follows. • 1.0 point—Abnormal extension or tremors of hind limbs of the mouse when suspended by tail. • 1.5 points—Weakness of unilateral hind limb • 2.0 points—Weakness of bilateral hind limbs along with abnormal gait. • 2.5 points—Obvious weakness of unilateral hind limb. • 3.0 points—Obvious weakness of bilateral hind limbs. • 3.5 points—Paralysis in unilateral hind limb. • 4.0 points—Paralysis in bilateral hind limbs. • 5.0 points—Inability of mouse to right itself from a supine position within 20 seconds.

[6] = system: SOD1-G93A transgenic mice; experiment: Serum malondialdehyde (MDA) in SOD1-G93A transgenic mice; conditions: Mus musculus, po, 720 h; read-out: % Inhibition rate (on oxidative damage, from MDA content)
Experimental: Blood of mice was collected by removal of eyeball. The blood samples were allowed to stand until supernatant separated out, and then centrifuged at 3,000 rpm for 10 minutes at 4° C. to isolate serum. The serum was aliquoted into EP tubes and stored in an ultra-low temperature refrigerator (−80° C.). MDA content was measured. The inhibition rate on oxidative damage by each drug group was calculated according to MDA content, following the formula of.
Blood of mice was collected by removal of eyeball. Blood samples were allowed to stand until supernatant separated out, and then centrifuged at 3,000 rpm for 10 minutes at 4° C. to isolate serum. The MDA content was measured using a kit, and the inhibition rate on oxidative damage by each drug group was calculated according to MDA content.

[7] = system: SOD1-G93A transgenic mice; experiment: Time to onset of paralysis in SOD1-G93A transgenic mice; conditions: Riluzole 0.02 g/kg gavage
Experimental: Neurological function was evaluated during the dosing phase using the Snow scoring method twice weekly. […]
The time from administration to the first occurrence of a neurological function score ≥3.5 was defined as the time to onset of paralysis. The mean time to onset of paralysis of animals was calculated. […] The paralysis delay rate for each drug group was also calculated according to the following formula:
The time from administration to the first occurrence of a neurological function score ≥3.5 was defined as the time to onset of paralysis. The mean time to onset of paralysis of animals was calculated. […]

[8] = system: SOD1-G93A transgenic mice; experiment: Immunoblotting of MBP and SV2A in spinal cord, SOD1-G93A transgenic mice; conditions: Riluzole 0.02 g/kg gavage, 30 days, negative control 1.00
Experimental: as §1, §2, §3
Based on the amount of spinal cord tissue harvested from mice, myelin- and synapse-related molecular biological indicators were detected. The myelin- and synapse-related indicators included myelin basic protein (MBP) and synaptic vesicle protein 2A(SV2A).
Based on the amount of spinal cord tissue harvested from mice, myelin- and synapse-related molecular biological indicators, including myelin basic protein (MBP) and synaptic vesicle protein 2A (SV2A), were detected.

[9] = Riluzole 0.02 g/kg gavage, female
[10] = Riluzole 0.02 g/kg gavage, male

SMILES: Nc1nc2ccc(OC(F)(F)F)cc2s1 [Riluzole]
- Co-localization degree of synaptotagmin-2 and α-BTX (neuromuscular junction), gastrocnemius muscle [1]: increased the co-localization degree of neuromuscular junctions
- MBP (myelin marker) expression in spinal cord, immunofluorescence [1]: increased the expression levels of the myelin marker
- Number of Pax7-positive satellite cells in the gastrocnemius muscle [1]: increased the number of positive satellite cells in the gastrocnemius muscle
- Tuj-1 (neuronal marker) expression in spinal cord, immunofluorescence [1]: increased the expression levels of the myelin marker and neuronal marker
- Sciatic nerve axonal degeneration with myelin degeneration, number of samples per lesion grade ([2]; Riluzole 0.02 g/kg gavage, 6 samples): myelin degeneration (1 sample: +++, 4 samples: ++, 1 sample: +).
- Lesion score (divided by gender) [2, 9]: 2
- Lesion score (divided by gender) [2, 10]: 2
- Group Score (lesion) ([2]; Riluzole 0.02 g/kg gavage, median of lesion grade points of the group): 2
- Axonal degeneration with myelin degeneration, lesion grade of individual animal [2, 9]: + and ++ (2×)
- Axonal degeneration with myelin degeneration, lesion grade of individual animal [2, 10]: ++ (2×) and +++
- Sciatic nerve pathological changes (HE staining) compared to the model control group ([2]; Riluzole 0.02 g/kg, TCM-073 high dose 6.0 g raw drug/kg): slightly milder
- Peak value of action potential ([3]; female): 10.4 ± 4.0
- Time course within region of interest of action potential ([3]; female): 0.0018 ± 0.0002
- Wave amplitude of action potential ([3]; female): 14.8 ± 5.6
- Peak value of action potential ([3]; male): 8.8 ± 2.2
- Time course within region of interest of action potential ([3]; male): 0.0016 ± 0.0001
- Wave amplitude of action potential ([3]; male): 11.2 ± 3.9
- Peak value of action potential ([3]; no division by gender): 9.6 ± 3.3
- Time course within region of interest of action potential ([3]; no division by gender): 0.0017 ± 0.0002
- Wave amplitude of action potential ([3]; no division by gender): 13.0 ± 5.0
- Hanging time ([4]; 31 d of administration): 63.3 ± 29.2 s
- Hanging time ([4]; 34 d of administration): 57.6 ± 2.6 s
- Hanging time ([4]; 39 d of administration): 46.5 ± 29.8 s
- Hanging time ([4]; 42 d of administration): 40.8 ± 30.7 s
- Hanging time ([4]; 46 d of administration): 33.8 ± 27.2 s
- Neurological function score ([5]; 31 d of administration): 2.2 ± 0.4
- Neurological function score ([5]; 34 d of administration): 2.2 ± 0.4
- Neurological function score ([5]; 39 d of administration): 2.2 ± 0.5
- Neurological function score ([5]; 42 d of administration): 2.3 ± 0.5
- Neurological function score ([5]; 46 d of administration): 2.2 ± 0.4
- inhibition at 20 mg/kg [6]: 20%
- Time to onset of paralysis ([7]; female): 139.6 ± 5.7 days
- Time to onset of paralysis ([7]; male): 129.2 ± 18.9 days
- MBP content in spinal cord [8]: 0.99 ± 0.62
- SV2A content in spinal cord [8]: 0.41 ± 0.15
